Assay results as given in ChEMBL document CHEMBL1201862, “PubChem BioAssay data set” (2004).
Active and inactive are the calls of the source.

What was measured:
[1] = biological target: T1, Delta-type opioid receptor (Homo sapiens, UniProt P41143); experiment: HTS Image-Based Screen for Antagonists of the DOR Receptor. [Related pubchem assays (depositor defined):AID1777, AID1785, AID1786, AID2133]; type: functional
[2] = biological target: Mu-type opioid receptor (Homo sapiens, UniProt P35372); experiment: HTS Image-Based Screen for Agonists of the MOR Receptor. [Related pubchem assays (depositor defined):AID1777, AID1785, AID1786, AID2133]; type: functional;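 also: imaging of beta-arrestin GFP recruitment into spots after receptor activation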
Chain of Mu-type opioid receptor (P35372 whole entry): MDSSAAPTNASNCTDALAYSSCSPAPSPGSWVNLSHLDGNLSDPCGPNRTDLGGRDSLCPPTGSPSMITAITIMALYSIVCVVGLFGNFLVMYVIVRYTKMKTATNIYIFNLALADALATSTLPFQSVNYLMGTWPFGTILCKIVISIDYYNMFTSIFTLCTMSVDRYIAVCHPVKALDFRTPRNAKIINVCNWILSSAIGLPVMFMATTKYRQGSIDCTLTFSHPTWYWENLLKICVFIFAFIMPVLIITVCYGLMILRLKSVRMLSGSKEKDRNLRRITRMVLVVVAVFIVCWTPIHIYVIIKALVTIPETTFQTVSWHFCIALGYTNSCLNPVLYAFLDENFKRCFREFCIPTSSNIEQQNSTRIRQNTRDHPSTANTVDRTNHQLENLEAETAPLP

[3] = system: Streptococcus sp. 'group A'; experiment: Streptococcus pyogenes SK(-)GAS viability under kanamycin – luminescence, BacTiterGlo, confirmation, counter-screen for streptokinase expression inhibitor project, dose response (AID 1900); type: functional, organism-based
[4] = biological target: T1, Delta-type opioid receptor; experiment: HTS Image-Based Screen for Agonists of the DOR Receptor. [Related pubchem assays (depositor defined):AID1777, AID1786, AID2133]; type: functional
[5] = Trypanosoma cruzi growth suppression in host cells – NIH3T3 host cells, beta-gal luminescence, confirmation (AID 2044); type: functional, cell-based;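 also: intracellular parasites grown in NIH/3T3 mouse fibroblasts as host cells; luminescent beta-galactosidase reporter signal from transgenic T. cruzi replicating inside host cells; inhibitors lower the luminescence signal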
[6] = biological target: T2, Kappa-type opioid receptor (Homo sapiens, UniProt P41145); type: functional
T2 sequence (P41145 whole entry): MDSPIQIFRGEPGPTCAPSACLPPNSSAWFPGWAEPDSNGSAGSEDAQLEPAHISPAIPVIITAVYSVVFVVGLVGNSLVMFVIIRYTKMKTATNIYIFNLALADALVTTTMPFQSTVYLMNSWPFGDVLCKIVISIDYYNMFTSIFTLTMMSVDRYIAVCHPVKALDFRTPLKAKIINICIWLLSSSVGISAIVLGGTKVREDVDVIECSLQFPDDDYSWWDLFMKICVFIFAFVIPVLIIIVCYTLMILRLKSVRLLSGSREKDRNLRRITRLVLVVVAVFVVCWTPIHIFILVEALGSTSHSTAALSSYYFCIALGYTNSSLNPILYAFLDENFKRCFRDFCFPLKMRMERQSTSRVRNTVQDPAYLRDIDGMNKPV

[7] = biological target: Voltage-gated inwardly rectifying potassium channel KCNH2 (Homo sapiens, UniProt Q12809); experiment: concentration-dependent hERG rescue from blockers – cell-based, thallium flux, dose response (AID 2121); type: ADME
Chain of Voltage-gated inwardly rectifying potassium channel KCNH2 (Q12809 whole entry): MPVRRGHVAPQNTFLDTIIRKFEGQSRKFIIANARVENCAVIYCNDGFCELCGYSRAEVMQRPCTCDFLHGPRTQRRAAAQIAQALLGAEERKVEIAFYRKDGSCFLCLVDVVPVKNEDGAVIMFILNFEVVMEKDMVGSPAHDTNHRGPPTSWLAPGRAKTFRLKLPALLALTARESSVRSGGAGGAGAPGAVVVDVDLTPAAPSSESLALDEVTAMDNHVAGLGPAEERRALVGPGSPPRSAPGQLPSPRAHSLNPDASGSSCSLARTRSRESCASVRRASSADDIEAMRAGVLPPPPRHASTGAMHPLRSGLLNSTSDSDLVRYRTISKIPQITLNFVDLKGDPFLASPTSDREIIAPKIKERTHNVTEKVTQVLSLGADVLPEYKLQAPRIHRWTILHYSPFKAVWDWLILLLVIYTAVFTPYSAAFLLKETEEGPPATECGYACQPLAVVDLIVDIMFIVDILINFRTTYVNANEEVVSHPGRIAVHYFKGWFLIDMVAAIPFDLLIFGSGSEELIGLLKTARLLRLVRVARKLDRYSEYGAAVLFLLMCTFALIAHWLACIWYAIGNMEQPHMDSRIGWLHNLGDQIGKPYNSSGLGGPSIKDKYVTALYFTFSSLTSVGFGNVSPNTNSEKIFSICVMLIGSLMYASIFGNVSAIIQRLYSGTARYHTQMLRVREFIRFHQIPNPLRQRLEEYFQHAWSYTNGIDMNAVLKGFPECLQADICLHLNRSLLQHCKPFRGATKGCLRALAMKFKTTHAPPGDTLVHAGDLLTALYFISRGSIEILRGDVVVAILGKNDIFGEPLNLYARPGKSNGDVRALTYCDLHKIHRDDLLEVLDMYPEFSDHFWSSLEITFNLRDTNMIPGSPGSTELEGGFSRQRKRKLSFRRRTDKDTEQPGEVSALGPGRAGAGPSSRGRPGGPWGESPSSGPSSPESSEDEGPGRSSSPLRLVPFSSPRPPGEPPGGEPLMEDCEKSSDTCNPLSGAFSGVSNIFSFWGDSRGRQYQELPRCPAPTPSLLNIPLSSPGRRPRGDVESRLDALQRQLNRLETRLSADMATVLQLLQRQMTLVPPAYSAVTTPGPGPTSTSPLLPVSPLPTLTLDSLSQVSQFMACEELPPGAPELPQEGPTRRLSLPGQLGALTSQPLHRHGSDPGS

[8] = biological target: Beta-galactosidase (Escherichia coli, UniProt Q8VNN2); type: functional
Chain of Beta-galactosidase (Q8VNN2 whole entry): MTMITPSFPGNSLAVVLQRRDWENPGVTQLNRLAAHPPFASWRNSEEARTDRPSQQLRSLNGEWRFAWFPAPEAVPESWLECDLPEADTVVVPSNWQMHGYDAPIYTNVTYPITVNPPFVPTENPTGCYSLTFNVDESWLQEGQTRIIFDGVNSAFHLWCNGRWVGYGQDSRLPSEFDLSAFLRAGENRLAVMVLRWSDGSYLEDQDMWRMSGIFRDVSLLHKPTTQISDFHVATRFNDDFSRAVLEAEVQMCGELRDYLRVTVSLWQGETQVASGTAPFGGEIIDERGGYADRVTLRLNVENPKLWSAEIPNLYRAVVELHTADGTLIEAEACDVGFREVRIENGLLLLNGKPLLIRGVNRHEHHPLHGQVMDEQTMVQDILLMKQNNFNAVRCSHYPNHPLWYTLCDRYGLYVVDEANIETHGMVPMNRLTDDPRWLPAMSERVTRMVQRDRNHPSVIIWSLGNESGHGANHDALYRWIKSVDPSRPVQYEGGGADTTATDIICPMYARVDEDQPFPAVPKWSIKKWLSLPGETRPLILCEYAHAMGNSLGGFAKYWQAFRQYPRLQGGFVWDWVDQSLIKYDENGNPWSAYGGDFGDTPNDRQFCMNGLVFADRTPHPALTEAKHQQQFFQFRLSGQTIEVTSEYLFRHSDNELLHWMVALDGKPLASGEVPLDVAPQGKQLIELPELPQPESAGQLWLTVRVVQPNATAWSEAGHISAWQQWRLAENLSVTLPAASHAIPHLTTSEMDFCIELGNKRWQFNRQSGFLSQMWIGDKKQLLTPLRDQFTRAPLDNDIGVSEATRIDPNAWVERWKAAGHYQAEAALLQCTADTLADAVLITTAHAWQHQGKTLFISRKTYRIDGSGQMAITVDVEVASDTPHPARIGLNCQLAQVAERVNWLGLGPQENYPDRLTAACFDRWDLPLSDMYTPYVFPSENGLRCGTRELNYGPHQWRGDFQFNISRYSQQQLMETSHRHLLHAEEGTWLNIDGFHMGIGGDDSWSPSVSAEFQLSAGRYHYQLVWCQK

[9] = biological target: T2, Kappa-type opioid receptor; type: functional; remark: listed apart in the source
[10] = system: Streptococcus; experiment: GAS UMAA2166 growth inhibition – luminescence, BacTiterGlo, counter-screen for streptokinase expression inhibitor project, dose response (AID 1915); type: functional, organism-based;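 also: potency for reduction of bacterial viability or growth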
[11] = A Cell Based Secondary Assay To Explore Cytotoxicity of Compounds that Sensitize Mycobacterium Tuberculosis to Beta-Lactam Antibiotics.; type: functional
[12] = biological target: T3, G-protein coupled receptor 55 (Homo sapiens, UniProt Q9Y2T6); experiment: inhibition of LPI-stimulated GPR55 beta-arrestin translocation – imaging, U2OS, beta-arrestin-GFP, LPI agonist, primary screen (AID 2013); type: functional;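 also: antagonist potency measured as reduced agonist-driven arrestin aggregation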
T3 sequence (Q9Y2T6 whole entry): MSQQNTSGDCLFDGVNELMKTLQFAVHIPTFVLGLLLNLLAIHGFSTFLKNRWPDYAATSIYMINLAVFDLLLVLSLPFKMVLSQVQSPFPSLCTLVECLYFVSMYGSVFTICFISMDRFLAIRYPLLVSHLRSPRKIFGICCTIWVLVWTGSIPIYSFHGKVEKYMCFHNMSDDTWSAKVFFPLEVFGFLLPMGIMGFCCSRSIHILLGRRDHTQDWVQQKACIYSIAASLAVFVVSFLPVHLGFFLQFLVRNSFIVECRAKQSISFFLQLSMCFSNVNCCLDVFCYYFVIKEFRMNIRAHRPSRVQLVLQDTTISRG

[13] = viability of PTEN-deleted HCT116 cells – cell-based, HCT116 PTEN knockout, dose response (AID 1047); type: functional;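 also: HCT116 colon tumor cells with PTEN knocked out; cells exposed to compound for 60 hours before readout; potency for loss of cell viability measured by luminescence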
[14] = NIH3T3 cell viability loss – ATP luminescence, mouse fibroblasts, counter-screen, dose response (AID 2010); type: functional, cell-based;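 also: cells exposed to compound for about 90 hours before reading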
[15] = viability of HCT116 lacking mutant beta-catenin – cell-based, human colon tumor, dose response (AID 1045); type: functional;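 also: HCT116 colon tumor cells with beta catenin knocked out; cells exposed to compound for 60 hours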
[16] = biological target: T4, Cannabinoid receptor 1 (Homo sapiens, UniProt P21554); experiment: SAR analysis of antagonists of the Cannabinoid Receptor 1 using an Image-Based Assay - Set 2. [Related pubchem assays (depositor defined):AID2013, AID2026]; type: functional
T4 sequence (P21554 whole entry): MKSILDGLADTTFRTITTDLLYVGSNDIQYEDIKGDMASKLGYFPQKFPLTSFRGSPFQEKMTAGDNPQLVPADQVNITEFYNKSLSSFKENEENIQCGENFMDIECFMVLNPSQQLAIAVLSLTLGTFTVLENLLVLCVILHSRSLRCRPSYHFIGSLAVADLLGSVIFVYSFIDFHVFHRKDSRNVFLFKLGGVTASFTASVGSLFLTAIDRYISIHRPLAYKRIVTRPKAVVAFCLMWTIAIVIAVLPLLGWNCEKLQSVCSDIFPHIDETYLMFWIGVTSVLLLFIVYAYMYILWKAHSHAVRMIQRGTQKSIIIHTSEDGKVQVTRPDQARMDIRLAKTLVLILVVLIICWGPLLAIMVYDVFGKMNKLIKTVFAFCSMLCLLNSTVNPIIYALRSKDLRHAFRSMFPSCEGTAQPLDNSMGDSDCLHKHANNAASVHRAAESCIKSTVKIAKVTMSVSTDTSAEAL

[17] = biological target: T5, G-protein coupled receptor 35 (Homo sapiens, UniProt Q9HC97); experiment: SAR analysis of Agonists of the GPR35 Receptor using an Image-Based Assay - Set 2. [Related pubchem assays (depositor defined):AID2013, AID2026]; type: functional
T5 sequence (Q9HC97 whole entry): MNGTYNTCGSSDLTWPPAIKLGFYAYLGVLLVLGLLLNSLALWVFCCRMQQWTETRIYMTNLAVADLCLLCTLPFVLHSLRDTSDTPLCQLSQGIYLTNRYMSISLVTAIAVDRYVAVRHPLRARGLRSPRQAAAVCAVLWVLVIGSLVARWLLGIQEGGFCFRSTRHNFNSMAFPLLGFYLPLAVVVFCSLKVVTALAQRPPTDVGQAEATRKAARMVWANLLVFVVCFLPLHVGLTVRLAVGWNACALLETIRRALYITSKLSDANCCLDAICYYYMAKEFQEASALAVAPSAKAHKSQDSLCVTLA

[18] = biological target: T6, Cannabinoid receptor 2 (Homo sapiens, UniProt P34972); experiment: SAR analysis of antagonists of the Cannabinoid Receptor 2 using an Image-Based Assay. [Related pubchem assays (depositor defined):AID2013, AID2026]; type: functional
T6 sequence (P34972 whole entry): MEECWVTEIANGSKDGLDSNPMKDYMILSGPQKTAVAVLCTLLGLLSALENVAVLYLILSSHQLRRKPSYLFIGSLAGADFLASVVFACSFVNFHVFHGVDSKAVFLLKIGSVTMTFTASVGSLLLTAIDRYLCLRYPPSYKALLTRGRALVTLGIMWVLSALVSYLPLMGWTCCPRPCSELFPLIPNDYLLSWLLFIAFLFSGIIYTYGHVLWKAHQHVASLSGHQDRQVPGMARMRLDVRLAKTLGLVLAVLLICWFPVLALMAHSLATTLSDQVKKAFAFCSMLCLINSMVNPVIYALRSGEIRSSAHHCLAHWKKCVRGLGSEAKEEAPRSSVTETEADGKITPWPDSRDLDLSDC

[19] = biological target: T4, Cannabinoid receptor 1; experiment: SAR analysis of agonists of the Cannabinoid Receptor 1 using an Image-Based Assay - Set 2. [Related pubchem assays (depositor defined):AID2013, AID2026]; type: functional
[20] = biological target: T5, G-protein coupled receptor 35; experiment: SAR analysis of Antagonists of the GPR35 Receptor using an Image-Based Assay - Set 3. [Related pubchem assays (depositor defined):AID2013, AID2026]; type: functional
[21] = biological target: T3, G-protein coupled receptor 55; experiment: blockade of LPI-induced GPR55 arrestin translocation – imaging, U2OS, beta-arrestin-GFP, LPI agonist, set 2, SAR follow-up (AID 2820); type: functional
[22] = biological target: T6, Cannabinoid receptor 2; experiment: SAR analysis of agonists of the Cannabinoid Receptor 2 using an Image-Based Assay. [Related pubchem assays (depositor defined):AID2013, AID2026]; type: functional
[23] = biological target: Cytochrome P450 2C9 (Homo sapiens, UniProt P11712)
[24] = biological target: T7, Heat shock factor protein 1 (Mus musculus, UniProt P38532); experiment: decrease of HSF1-responsive luciferase luminescence – cell-based, NIH3T3, dose retest, confirmation (AID 2382); type: functional;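 also: NIH3T3 fibroblasts with HSF1-driven luciferase reporter stressed by proteasome inhibitor MG132; luminescence from HSF1-driven luciferase expression after 8 hours of MG132 stress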
T7 sequence (P38532 whole entry): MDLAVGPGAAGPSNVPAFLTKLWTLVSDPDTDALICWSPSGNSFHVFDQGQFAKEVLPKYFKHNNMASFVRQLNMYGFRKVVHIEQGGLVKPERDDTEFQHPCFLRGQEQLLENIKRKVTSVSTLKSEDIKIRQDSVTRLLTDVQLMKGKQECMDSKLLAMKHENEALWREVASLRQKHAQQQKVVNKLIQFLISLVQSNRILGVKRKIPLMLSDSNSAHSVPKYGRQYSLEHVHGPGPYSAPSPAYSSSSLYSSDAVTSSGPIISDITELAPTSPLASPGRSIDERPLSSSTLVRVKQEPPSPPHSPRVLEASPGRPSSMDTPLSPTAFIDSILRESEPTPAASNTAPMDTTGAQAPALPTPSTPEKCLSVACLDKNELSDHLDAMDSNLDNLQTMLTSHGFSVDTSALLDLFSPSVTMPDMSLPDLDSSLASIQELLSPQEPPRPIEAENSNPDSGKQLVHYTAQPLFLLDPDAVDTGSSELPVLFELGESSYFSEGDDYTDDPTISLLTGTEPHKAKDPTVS

[25] = Luminescence Cell-Based Dose Retest to Confirm Inhibitors of Cancer Stem Cells. [Related pubchem assays (depositor defined):AID2717, AID2721]; type: functional; conditions: Homo sapiens
[26] = toxicity toward cultured mammalian cells – cell-based, plate reader, cherry-pick samples, cytotoxicity control, dose response (AID 504397); type: functional

T1 sequence (P41143 whole entry): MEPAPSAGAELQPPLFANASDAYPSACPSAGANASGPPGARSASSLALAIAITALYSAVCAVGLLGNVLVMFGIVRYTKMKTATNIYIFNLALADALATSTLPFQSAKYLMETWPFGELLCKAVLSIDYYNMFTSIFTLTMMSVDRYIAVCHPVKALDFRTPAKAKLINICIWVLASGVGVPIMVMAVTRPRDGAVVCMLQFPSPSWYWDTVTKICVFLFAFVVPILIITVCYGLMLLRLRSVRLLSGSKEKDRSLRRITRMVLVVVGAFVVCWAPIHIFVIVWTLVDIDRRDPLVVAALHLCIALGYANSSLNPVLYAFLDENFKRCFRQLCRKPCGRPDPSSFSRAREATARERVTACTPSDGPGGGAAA

COc1ccc(/C=C2\SC(=N)N(c3nccs3)C2=O)cc1OC
inactive: IC50 [1] > 32 µM | EC50 [2] > 32 µM | EC50 [4] > 32 µM | EC50 [8] > 31.5 µM
> 32 µM: IC50 [9]
active: EC50 [3] 1.69 µM | EC50 [5] 3.66 µM | IC50 [6] 7.22 µM | EC50 [7] 84.7 µM | EC50 [10] 3.61 µM

CC(C)(C)NS(=O)(=O)c1ccc(NC(=O)C(Sc2ccccc2)c2ccccc2)cc1 (configuration not stated)
> 60 µM (not active): EC50 [14]
inconclusive: AC50 [23] 2 µM
inactive: EC50 [17] > 32 µM | IC50 [18] > 32 µM | EC50 [19] > 32 µM | IC50 [20] > 32 µM | EC50 [22] > 32 µM
active: CC50 [11] 27.1 µM | IC50 [12] 0.678 µM | EC50 [5] 2.31 µM | EC50 [13] 14.5 µM | EC50 [15] 14.7 µM | IC50 [16] 2.71 µM | IC50 [21] 0.978 µM

c1ccc(CNc2nc(N3CCN(Cc4ccccc4)CC3)nc3ccccc23)cc1
> 195 µM (not active): EC50 [24]
active: AC50 [25] 3.43 µM | AC50 [26] 66.2 µM
